Experiment in all cases: Heterologous whole cell competition binding
Conditions in all cases: heterologous competition of 125I-sCT(8-32), whole cells, mean ± S.E.M., SEM

The target of one assay is T1, hCTR M376A (Homo sapiens, UniProt P30988, M376A).
T1 construct: c-Myc (N); expressed in transfected cells
T1 sequence (P30988 25-474 M376A): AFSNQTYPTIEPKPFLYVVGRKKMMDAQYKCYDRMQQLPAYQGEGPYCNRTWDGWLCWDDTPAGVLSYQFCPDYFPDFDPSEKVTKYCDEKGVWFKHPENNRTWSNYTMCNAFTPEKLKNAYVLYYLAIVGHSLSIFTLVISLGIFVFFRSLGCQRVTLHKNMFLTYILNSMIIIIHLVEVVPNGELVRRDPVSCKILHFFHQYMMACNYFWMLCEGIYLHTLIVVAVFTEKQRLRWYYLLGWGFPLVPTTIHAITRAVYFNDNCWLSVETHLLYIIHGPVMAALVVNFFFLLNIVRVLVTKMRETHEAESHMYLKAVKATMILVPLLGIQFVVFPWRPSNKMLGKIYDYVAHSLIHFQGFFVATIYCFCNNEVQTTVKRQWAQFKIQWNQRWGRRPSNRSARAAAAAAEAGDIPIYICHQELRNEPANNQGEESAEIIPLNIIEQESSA
The procedure, abridged: (§1)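 Reported pKi values come from whole-cell displacement of a radiolabelled tracer, incubated overnight and quantified by gamma counting after washing out free ligand, with correction for tracer occupancy (Cheng-Prusoff).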

The target of the next assay is T2, hCTR T295A (Homo sapiens, UniProt P30988, T295A).
T2 construct: c-Myc (N); expressed in transfected cells
T2 sequence (P30988 25-474 T295A): T1 sequence (P30988 25-474 M376A) with T271A, A352M
The essentials: as §1

In another assay the target is T3, hCTR I279A (Homo sapiens, UniProt P30988, I279A).
T3 construct: expressed in transfected cells
T3 sequence (P30988 25-474 I279A): T1 sequence (P30988 25-474 M376A) with I255A, A352M
The essentials:
as §1

A further assay deals with T4, hCTR G369A (Homo sapiens, UniProt P30988, G369A).
T4 construct: c-Myc (N); expressed in transfected cells
T4 sequence (P30988 25-474 G369A): T1 sequence (P30988 25-474 M376A) with G345A, A352M
The essentials: as §1

For a further assay, the target named is T5, hCTR N288A (Homo sapiens, UniProt P30988, N288A).
T5 construct: expressed in transfected cells
T5 sequence (P30988 25-474 N288A): T1 sequence (P30988 25-474 M376A) with N264A, A352M
The procedure, abridged: as §1

Molecules are shown by their SMILES. Changes are numbered by the printed parent chain. Where a SMILES comes first, the peptide text is derived from it. Bridges are numbered along the chain shown (N, C = ends).

With `CSCC[C@H](NC(=O)CNC(=O)[C@H](CO)NC(=O)[C@H](Cc1ccccc1)NC(=O)[C@H](CCCNC(=N)N)NC(=O)[C@H](Cc1c[nH]cn1)NC(=O)[C@H](Cc1ccccc1)NC(=O)[C@H](CC(N)=O)NC(=O)[C@H](CC(N)=O)NC(=O)[C@H](CC(C)C)NC(=O)[C@H](CC(N)=O)NC(=O)[C@H](CCCNC(=N)N)NC(=O)[C@H](Cc1c[nH]c2ccccc12)NC(=O)[C@H](Cc1ccc(O)cc1)NC(=O)[C@H](C)NC(=O)[C@H](CO)NC(=O)[C@H](CC(C)C)NC(=O)[C@@H](NC(=O)[C@@H]1CSSC[C@H](N)C(=O)N[C@@H](CO)C(=O)N[C@@H](CC(N)=O)C(=O)N[C@@H](CC(C)C)C(=O)N[C@@H](CO)C(=O)N[C@@H]([C@@H](C)O)C(=O)N1)C(C)C)C(=O)NCC(=O)N[C@@H](Cc1ccccc1)C(=O)NCC(=O)N1CCC[C@H]1C(=O)N[C@@H](CCC(=O)O)C(=O)N[C@H](C(=O)N1CCC[C@H]1C(N)=O)[C@@H](C)O` [pCT] (H-CSNLSTCVLSAYWRNLNNFHRFSGMGFGPETP-NH2; disulfide 1-7), the Ki on hCTR M376A was 7.76 nM; on hCTR T295A, 32.4 nM; at hCTR I279A, 14.8 nM; on hCTR G369A, 7.94 nM; on hCTR N288A, 9.33 nM.

In general, Ki refers to the dissociation constant of the complex between target and ligand, obtained from inhibition or displacement. Read a high Ki as weaker binding.

For the origin of these results see PMC5908784, “Extracellular loops 2 and 3 of the calcitonin receptor selectively modify agonist binding and efficacy” (Biochemical Pharmacology, 2018).
